Experimental data: PMC8696980, “Isolation, semi-synthesis, docking-based prediction, and bioassay-based activity of Dolichandrone spathacea iridoids: new catalpol derivatives as glucosidase inhibitors” (RSC Advances, 2021)
Read-outs that look alike come from different tables or passages of the source.

Target: T1, α-glucosidase (Saccharomyces cerevisiae, UniProt P53341)
T1 construct: purchased Sigma-Aldrich G0660
Experiment: biochemical
Format: biochemical
Details: 37 °C, 30 minutes, pH 6.8
Description: All analytically graded reagents were purchased from either Sigma-Aldrich or Merck & Co. and used without further purification. Solvents for column chromatography were distilled before use. Melting points (in °C) were determined on a Thermo Mel-temp 3.0 (USA). Infrared (IR) spectra were recorded on an IMPACT 410 Nicolet Spectrometer. ESI-MS spectra were obtained from an 1100 Agilent LC/MS ion Trap. 1D (^1H, ^13C and DEPT) and 2D (HSQC, HMBC, COSY, NOESY) NMR spectra were recorded on a Bruker Avance 500 MHz using tetramethylsilane (TMS) as the internal standard for ^1H and solvent signal for ^13C NMR. Thin-layer chromatography (TLC) was carried out on a pre-coated silica gel 60 F254 (Merck & Co.), visualised under ultraviolet (UV) radiation at λmax 254 nm, and stained by a solution of 1% (w/w) vanillin in sulfuric acid. Column chromatography (CC) was performed on silica gel 300–400 mesh (Merck & Co.). Enzyme α-glucosidase was purchased from Sigma-Aldrich under the name code G0660, detected by a Biotek Epoch 2 microplate readers (USA).
Each assay was performed on 96 well-plates (200 μL per well). The test samples were dissolved in DMSO 10% and further diluted to the concentrations: 1024, 256, 64, 16, 4, 1 μg.mL^−1. Each concentration of the test sample (10 μL) was incubated at 37 °C with phosphate buffer 100 mM (pH 6.8, 40 μL), α-glucosidase 0.4 U mL^−1 (25 μL), p-nitrophenyl α-D-glucopyranoside 2.5 mM (25 μL). After 30 minutes, the reaction was terminated by adding 100 μL of 0.1 M Na2CO3 solution. The enzyme activities were determined by measuring the absorbance at λmax 410 nm. […] Percentage of inhibition was calculated as followed:[31] [drawing 1]

[1] = IC50 (α-glucosidase inhibitory activity)

T1 sequence (P53341 whole entry): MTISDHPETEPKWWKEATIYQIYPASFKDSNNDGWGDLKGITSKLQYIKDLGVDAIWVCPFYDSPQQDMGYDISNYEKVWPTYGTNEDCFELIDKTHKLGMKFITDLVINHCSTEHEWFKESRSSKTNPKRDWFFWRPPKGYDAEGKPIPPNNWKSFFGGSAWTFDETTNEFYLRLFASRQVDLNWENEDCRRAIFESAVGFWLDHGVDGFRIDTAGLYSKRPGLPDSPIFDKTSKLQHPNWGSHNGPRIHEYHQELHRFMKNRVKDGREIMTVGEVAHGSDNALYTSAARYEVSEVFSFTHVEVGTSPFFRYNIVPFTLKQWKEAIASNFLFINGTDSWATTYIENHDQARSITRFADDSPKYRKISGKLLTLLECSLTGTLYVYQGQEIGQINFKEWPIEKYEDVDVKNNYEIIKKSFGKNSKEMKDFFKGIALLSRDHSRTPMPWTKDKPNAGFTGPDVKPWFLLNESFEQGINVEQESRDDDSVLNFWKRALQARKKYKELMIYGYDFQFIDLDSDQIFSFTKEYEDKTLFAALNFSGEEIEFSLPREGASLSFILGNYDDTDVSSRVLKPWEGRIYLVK

| IC50 (read-out: IC50 (α-glucosidase inhibitory activity)) [µM] | Structure (SMILES) | IC50 (α-glucosidase inhibitory activity) | IC50 [1] [µM] |
| --- | --- | --- | --- |
| 8.65 | O=C(/C=C/c1ccc(O)cc1)O[C@H]1[C@@H]2C=CO[C@@H](O[C@@H]3O[C@H](CO)[C@@H](O)[C@H](O)[C@H]3O)[C@@H]2[C@@]2(CO)O[C@@H]12 [Compound 14, specioside] | – | – |
| – | COc1ccc(C=CC(=O)OC2C3C=COC(OC4OC(COC(C)=O)C(OC(C)=O)C(OC(C)=O)C4OC(C)=O)C3C3(COC(C)=O)OC23)cc1OC (stereo not shown) [Compound 8, 6-O-[(E)-3,4-dimethoxycinnamoyl]catalpolpentaacetate] | inactive | > 390 |
| – | COc1ccc(CCC(=O)OC2C3C=COC(OC4OC(COC(C)=O)C(OC(C)=O)C(OC(C)=O)C4OC(C)=O)C3C3(COC(C)=O)OC23)cc1OC (stereo not shown) [Compound 5, 6-O-(3,4-dimethoxyphenylpropanoyl)catalpolpentaacetate] | inactive | > 390 |
| – | COc1ccc(C=CC(=O)OC2C3C=COC(OC4OC(COC(c5ccccc5)(c5ccccc5)c5ccccc5)C(O)C(O)C4O)C3C3(COC(c4ccccc4)(c4ccccc4)c4ccccc4)OC23)cc1OC (stereo not shown) [Compound 6, 6-O-[(E)-3,4-dimethoxy]catalpol-10,6′-O-ditriphenylmethyl] | – | 225 |
| – | COc1ccc(C=CC(=O)OC2C3C=COC(OC4OC(CO)C(O)C(O)C4O)C3C3(CO)OC23)cc1OC (stereo not shown) [Compound 2, 6-O-[(E)-3,4-dimethoxycinnamoyl]catalpol] | – | 7.24 |
| – | COc1ccc(C=CC(=O)OC2C3C=COC(OC4OC(COC(C)=O)C(OC(C)=O)C(OC(C)=O)C4OC(C)=O)C3C3(COC(C)=O)OC23)cc1OC(C)=O (stereo not shown) [Compound 11, 6-O-[(E)-4-methoxycinnamoyl]catalpolhexaacetate] | inactive | > 390 |
| – | COc1ccc(C=CC(=O)OC2C3C=COC(OC4OC(CO)C(O)C(O)C4O)C3C3(CO)OC23)cc1 (stereo not shown) [Compound 1, 6-O-[(E)-4-methoxycinnamoyl]catalpol] | – | 24.9 |
| – | COc1ccc(CCC(=O)OC2C3C=COC(OC4OC(CO)C(O)C(O)C4O)C3C3(CO)OC23)cc1 (stereo not shown) [Compound 3, 6-O-(4-methoxyphenylpropanoyl)catalpol] | inactive | > 390 |
| – | COc1ccc(/C=C/C(=O)O[C@H]2[C@@H]3C=CO[C@@H](O[C@@H]4O[C@H](CO)[C@@H](O)[C@H](O)[C@H]4O)[C@@H]3[C@@]3(CO)O[C@@H]23)cc1O [Compound 13, minecoside] | – | 20.8 |
| – | CC(=O)OCC1OC(OC2OC=CC3C(OC(=O)C=Cc4ccc(OC(C)=O)cc4)C4OC4(COC(C)=O)C23)C(OC(C)=O)C(OC(C)=O)C1OC(C)=O (stereo not shown) [Compound 12, specioside hexaacetate] | – | 71.6 |
| – | COc1ccc(CCC(=O)OC2C3C=COC(OC4OC(CO)C(O)C(O)C4O)C3C3(CO)OC23)cc1OC (stereo not shown) [Compound 4, 6-O-(3,4-dimethoxyphenylpropanoyl)catalpol] | inactive | > 390 |
| – | CC(=CCO)CCC=C(C)C(=O)OC1C2C=COC(OC3OC(CO)C(O)C(O)C3O)C2C2(CO)OC12 (stereo not shown) [Compound 10, nemoroside] | – | 0.05 |
| – | COc1ccc(C=CC(=O)OC2C3C=COC(OC4OC5COC(C)(C)OC5C(O)C4O)C3C3(CO)OC23)cc1 (stereo not shown) [Compound 9, 6-O-[(E)-4-methoxycinnamoyl]catalpol-4′,6′-acetonide] | – | > 390 |
| – | COc1ccc(C=CC(=O)OC2C3C=COC(OC4OC(COC(C)=O)C(OC(C)=O)C(OC(C)=O)C4OC(C)=O)C3C3(COC(C)=O)OC23)cc1 (stereo not shown) [Compound 7, minecoside pentaacetate] | – | 168 |
